Experimental findings from patent US11820773B2, “Tricyclic compounds” (ALIGOS THERAPEUTICS, INC., priority 2020, dated 2023) are described below.

For the test, the system named is HBV. Nature of the test: HBV-DNA antiviral assay using HepG2.117 cells (intracellular HBV DNA by qPCR). The test is classed as cell-based, genotype D HBV. The note with it: Hepatitis B virus, 72 h, HBV DNA inhibition, 3 days incubation, 2% DMSO. The method, then: The following assay procedure describes the HBV antiviral assay, using HepG2.117 cells, which carry a stably integrated genotype D HBV genome under the control of a Tet-off promoter, and intracellular HBV DNA quantification as endpoint. Cell viability is assessed in parallel by measuring the intracellular ATP content using CellTiter-Glo 2.0 (Promega).
On day 0, HepG2.117 cells (which are maintained in routine cell culture with doxycycline present in the medium at a final concentration of 1 μg/mL) were seeded in 96-well plates (white with clear bottom) at a density of 2.0×10^4 cells/well (0.1 mL/well) in medium without doxycycline to induce pgRNA transcription and subsequent formation of HBV particles. The cells were incubated at 37° C. and 5% CO2.
On day 1, medium was removed from each well, the test articles were diluted in culture medium without doxcycyline and 100 μL was added to cell culture wells (9 concentrations, 4-fold dilution). For each plate, 6 untreated (merely DMSO) wells were included. The final concentration of DMSO in the culture medium was 2%. Each plate was prepared in duplicate (one for HBV DNA extraction, one for CellTiter-Glo 2.0 measurement). The cells were incubated at 37° C. and 5% CO2 for 3 days.
On day 4, cell viability was assessed using CellTiter-Glo 2.0 and cell lysates were prepared for HBV DNA extraction and subsequent quantification by qPCR.
HBV DNA Quantification by qPCR
Medium was removed from each well and 100 μL of 0.33% NP-40 in H2O was added to each well. Plates were sealed, incubated at 4° C. for 5 mins, vortexed extensively and centrifuged briefly. Next, 35 μL of lysate was added to 65 μL QuickExtract DNA Extraction Solution (Epicentre) in a PCR plate for each well. PCR plate was incubated at 65° C. for 6 mins, 98° C. for 2 mins and finally cooled to 4° C. HBV DNA was then quantified by qPCR with HBV-specific primers and probes as specified in Table 1 using the Bio-Rad SSOAdvanced Universal Probes Supermix on a CFX96 machine (Bio-Rad). The PCR cycle program consisted of 95° C. for 3 mins, followed by 40 cycles at 95° C. for 10 sec and 60° C. for 30 sec.
A DNA standard was prepared by dilution of an IDT gBlock corresponding to the amplicon with concentrations ranging from 10^2 to 10^8 copies/input (i.e. per 4 μL) and used to generate a standard curve by plotting Cq values vs. HBV DNA standard concentration. The quantity of HBV DNA in each sample was determined by interpolating from the standard curve.
Cell viability was calculated as follows: % Cell viability=(luminescence value of test sample)/(average luminescence value of 2% DMSO control)×100%. HBV DNA inhibition was calculated as follows: 100−(HBV DNA copy number of test sample)/(average HBV DNA copy number of 2% DMSO control)×100%. No normalization to entecavir was required due to the excellent dynamic window of this assay. The CC50, EC50 and EC90 values were determined by dose-response curves fitted by GraphPad Prism using “log (agonist) vs. response—Variable slope”.
On the technique in general: In qPCR the cycle at which signal appears reflects the starting amount.
The EC50 is the concentration needed to bring the measured effect to its halfway point. High values mean a less potent agent, low ones a more potent agent. `C[C@@H]1Cc2c(n3ncc(Cc4ccccc4)c3n(-c3ccc(-c4noc(=O)n4C)cc3)c2=O)CN1C(=O)c1ccc(Br)c(C(F)(F)F)c1` (stereo in doubt) [Compound 41a, 4-methyl-3-[4-[rac-(11R)-5-benzyl-12-[4-bromo-3-(trifluoromethyl)benzoyl]-11-methyl-8-oxo-2,3,7,12-tetrazatricyclo[7.4.0.0^2,6]trideca-1(9),3,5-trien-7-yl]phenyl]-1,2,4-oxadiazol-5-one] showed an EC50 of less than 50 nM.

As to `C[C@H]1Cc2c(n3ncc(Cc4ccccc4)c3n(-c3ccc(-c4noc(=O)n4C)cc3)c2=O)CN1C(=O)c1ccc(Br)c(C(F)(F)F)c1` (stereo in doubt) [Compound 41b, 4-methyl-3-[4-[rac-(11S)-5-benzyl-12-[4-bromo-3-(trifluoromethyl)benzoyl]-11-methyl-8-oxo-2,3,7,12-tetrazatricyclo[7.4.0.0^2,6]trideca-1(9),3,5-trien-7-yl]phenyl]-1,2,4-oxadiazol-5-one], the EC50 lay in the range of 50 to 500 nM.

Take `CNc1n[nH]c2cc(-n3c(=O)c4c(n5ncc(Cc6ccccc6)c35)CN(C(=O)c3ccc(Br)c(C(F)(F)F)c3)[C@H](C)C4)ccc12` (stereo in doubt) [Compound 43a, rac-(11R)-5-benzyl-12-[4-bromo-3-(trifluoromethyl)benzoyl]-11-methyl-7-[3-(methylamino)-1H-indazol-6-yl]-2,3,7,12-tetrazatricyclo[7.4.0.0^2,6]trideca-1(9),3,5-trien-8-one]: the EC50 is less than 50 nM.

Consider `CNc1n[nH]c2cc(-n3c(=O)c4c(n5ncc(Cc6ccccc6)c35)CN(C(=O)c3ccc(Br)c(C(F)(F)F)c3)[C@@H](C)C4)ccc12` (stereo in doubt) [Compound 43b, rac-(11S)-5-benzyl-12-[4-bromo-3-(trifluoromethyl)benzoyl]-11-methyl-7-[3-(methylamino)-1H-indazol-6-yl]-2,3,7,12-tetrazatricyclo[7.4.0.0^2,6]trideca-1(9),3,5-trien-8-one], for which the concentration giving a half-maximal response (EC50) was less than 50 nM.

Take `C[C@@H]1Cc2c(n3ncc(Cc4ccccc4)c3n(-c3ccc(-c4nc(=O)on4C)cc3)c2=O)CN1C(=O)c1ccc(Br)c(C(F)(F)F)c1` (stereo in doubt) [Compound 44a, 2-methyl-3-[4-[rac-(11R)-5-benzyl-12-[4-bromo-3-(trifluoromethyl)benzoyl]-11-methyl-8-oxo-2,3,7,12-tetrazatricyclo[7.4.0.0^2,6]trideca-1(9),3,5-trien-7-yl]phenyl]-1,2,4-oxadiazol-5-one]: the EC50 is less than 50 nM.

For `C[C@H]1Cc2c(n3ncc(Cc4ccccc4)c3n(-c3ccc(-c4nc(=O)on4C)cc3)c2=O)CN1C(=O)c1ccc(Br)c(C(F)(F)F)c1` (stereo in doubt) [Compound 44b, 2-methyl-3-[4-[rac-(11S)-5-benzyl-12-[4-bromo-3-(trifluoromethyl)benzoyl]-11-methyl-8-oxo-2,3,7,12-tetrazatricyclo[7.4.0.0^2,6]trideca-1(9),3,5-trien-7-yl]phenyl]-1,2,4-oxadiazol-5-one], the EC50 is less than 50 nM.

As for `C[C@@H]1Cc2c(n3ncc(CC4CCC4)c3n(-c3ccc(-c4nncn4C)cc3)c2=O)CN1C(=O)c1ccc(Br)c(C(F)(F)F)c1` (stereo in doubt) [Compound 45a, rac-(11R)-12-[4-bromo-3-(trifluoromethyl)benzoyl]-5-(cyclobutylmethyl)-11-methyl-7-[4-(4-methyl-1,2,4-triazol-3-yl)phenyl]-2,3,7,12-tetrazatricyclo[7.4.0.0^2,6]trideca-1(9),3,5-trien-8-one], the EC50 was less than 50 nM.

Take `C[C@H]1Cc2c(n3ncc(CC4CCC4)c3n(-c3ccc(-c4nncn4C)cc3)c2=O)CN1C(=O)c1ccc(Br)c(C(F)(F)F)c1` (stereo in doubt) [Compound 45b, rac-(11S)-12-[4-bromo-3-(trifluoromethyl)benzoyl]-5-(cyclobutylmethyl)-11-methyl-7-[4-(4-methyl-1,2,4-triazol-3-yl)phenyl]-2,3,7,12-tetrazatricyclo[7.4.0.0^2,6]trideca-1(9),3,5-trien-8-one]: the EC50 was in the range of 50 to 500 nM.

On to `Cc1nnnn1-c1ccc(-n2c(=O)c3c(n4ncc(Cc5ccccc5)c24)CN(C(=O)c2ccc(Br)c(C(F)(F)F)c2)[C@H](C)C3)cc1` (stereo in doubt) [Compound 46a, rac-(11R)-5-benzyl-12-[4-bromo-3-(trifluoromethyl)benzoyl]-11-methyl-7-[4-(5-methyltetrazol-1-yl)phenyl]-2,3,7,12-tetrazatricyclo[7.4.0.0^2,6]trideca-1(9),3,5-trien-8-one], for which the EC50 was less than 50 nM.

Molecule `Cc1nnnn1-c1ccc(-n2c(=O)c3c(n4ncc(Cc5ccccc5)c24)CN(C(=O)c2ccc(Br)c(C(F)(F)F)c2)[C@@H](C)C3)cc1` (stereo in doubt) [Compound 46b, rac-(11S)-5-benzyl-12-[4-bromo-3-(trifluoromethyl)benzoyl]-11-methyl-7-[4-(5-methyltetrazol-1-yl)phenyl]-2,3,7,12-tetrazatricyclo[7.4.0.0^2,6]trideca-1(9),3,5-trien-8-one] showed an EC50 of 50 to 500 nM.

Molecule `Cc1nnc(-c2ccc(-n3c(=O)c4c(n5ncc(Cc6ccccc6)c35)CN(C(=O)c3ccc(Br)c(C(F)(F)F)c3)[C@H](C)C4)cc2)[nH]1` (stereo in doubt) [Compound 47a, rac-(11R)-5-benzyl-12-[4-bromo-3-(trifluoromethyl)benzoyl]-11-methyl-7-[4-(5-methyl-4H-1,2,4-triazol-3-yl)phenyl]-2,3,7,12-tetrazatricyclo[7.4.0.0^2,6]trideca-1(9),3,5-trien-8-one] registered a 50% effective concentration (EC50) of less than 50 nM.

`Cc1nnc(-c2ccc(-n3c(=O)c4c(n5ncc(Cc6ccccc6)c35)CN(C(=O)c3ccc(Br)c(C(F)(F)F)c3)[C@@H](C)C4)cc2)[nH]1` (stereo in doubt) [Compound 47b, rac-(11S)-5-benzyl-12-[4-bromo-3-(trifluoromethyl)benzoyl]-11-methyl-7-[4-(5-methyl-4H-1,2,4-triazol-3-yl)phenyl]-2,3,7,12-tetrazatricyclo[7.4.0.0^2,6]trideca-1(9),3,5-trien-8-one] registered an EC50 of less than 50 nM.

Take `C[C@@H]1Cc2c(n3ncc(CC4CCC4)c3n(-c3ccc(-c4nncn4C)cc3)c2=O)CN1C(=O)c1ccc(Br)c(Cl)c1` (stereo in doubt) [Compound 48a, rac-(11R)-12-(4-bromo-3-chloro-benzoyl)-5-(cyclobutylmethyl)-11-methyl-7-[4-(4-methyl-1,2,4-triazol-3-yl)phenyl]-2,3,7,12-tetrazatricyclo[7.4.0.0^2,6]trideca-1(9),3,5-trien-8-one]: the EC50 was less than 50 nM.

As for `C[C@H]1Cc2c(n3ncc(CC4CCC4)c3n(-c3ccc(-c4nncn4C)cc3)c2=O)CN1C(=O)c1ccc(Br)c(Cl)c1` (stereo in doubt) [Compound 48b, rac-(11S)-12-(4-bromo-3-chloro-benzoyl)-5-(cyclobutylmethyl)-11-methyl-7-[4-(4-methyl-1,2,4-triazol-3-yl)phenyl]-2,3,7,12-tetrazatricyclo[7.4.0.0^2,6]trideca-1(9),3,5-trien-8-one], the EC50 was 50 to 500 nM.

With `C[C@@H]1Cc2c(n3ncc(Cc4ccccc4)c3n(-c3ccc(-c4ncnn4C)cc3)c2=O)CN1C(=O)c1ccc(Br)c(C(F)(F)F)c1` (stereo in doubt) [Compound 49a, rac-(11R)-5-benzyl-12-[4-bromo-3-(trifluoromethyl)benzoyl]-11-methyl-7-[4-(2-methyl-1,2,4-triazol-3-yl)phenyl]-2,3,7,12-tetrazatricyclo[7.4.0.0^2,6]trideca-1(9),3,5-trien-8-one], the EC50 was less than 50 nM.

`C[C@H]1Cc2c(n3ncc(Cc4ccccc4)c3n(-c3ccc(-c4ncnn4C)cc3)c2=O)CN1C(=O)c1ccc(Br)c(C(F)(F)F)c1` (stereo in doubt) [Compound 49b, rac-(11S)-5-benzyl-12-[4-bromo-3-(trifluoromethyl)benzoyl]-11-methyl-7-[4-(2-methyl-1,2,4-triazol-3-yl)phenyl]-2,3,7,12-tetrazatricyclo[7.4.0.0^2,6]trideca-1(9),3,5-trien-8-one] registered an EC50 of 50 to 500 nM.
